From ChEMBL document CHEMBL2203172, “Synthesis of chiral hydroxylated enones as potential anti-tumor agents” (Bioorg Med Chem Lett, 2012)

Assays:
[1] = test system: HL-60; assay: Cytotoxicity against human HL60 cells; format: functional, cell-based
[2] = test system: WRL68; assay: Cytotoxicity against human WRL68 cells; format: cell-based
[3] = test system: HepG2; assay: Cytotoxicity against human HepG2 cells; format: functional, cell-based

| SMILES | IC50 [1] [µM] | IC50 [2] [µM] | IC50 [3] [µM] |
| --- | --- | --- | --- |
| CC(=O)OCC1=C[C@H](OCc2ccc3ccccc3c2)[C@H](O)[C@@H](O)C1=O | > 50 | > 200 | > 50 |
| CO[C@H]1C=C(COC(C)=O)C(=O)[C@H](O)[C@H]1O | > 50 | > 200 | > 50 |
| CCCCCO[C@H]1C=C(COC(C)=O)C(=O)[C@H](O)[C@H]1O | 3.1 | 169 | 16.1 |
| OCC1=C[C@H](O)[C@H](O)[C@@H](O)[C@@H]1O [STREPTOL] | > 50 | > 200 | > 50 |
| CC(=O)OCC1=C[C@H](OCc2ccc(-c3ccccc3)cc2)[C@H](O)[C@@H](O)C1=O |  | 71.3 |  |
| CCCCCCCO[C@H]1C=C(COC(C)=O)C(=O)[C@H](O)[C@H]1O | 39.8 | 152 | > 50 |
| CCCO[C@H]1C=C(COC(C)=O)C(=O)[C@H](O)[C@H]1O | 10.1 | 191 | 33.6 |
| CCCCCO[C@@H]1C=C(COC(C)=O)C(=O)[C@H](O)[C@H]1O | 2.6 | 48.3 | 10.1 |
